Test results: patent US20260184669A1, “LIPID COMPOUND AND COMPOSITION FOR DELIVERY OF ACTIVE SUBSTANCE” (KOREA RESEARCH INSTIUTE OF BIOSCIENCE AND BIOTECHNOLOGY, priority 2022, published 2026)

How the values were obtained:
[1] = system: IL-6 mRNA level in HEK-293T cells
[2] = mRNA encapsulation efficiency (Quant-IT RiboGreen RNA assay); format: physicochemical; conditions: mRNA encapsulation efficiency of mRNA-LNP made with the ionizable lipid; average of two measurements
How it was run: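 LNP samples read with RiboGreen reagent in TE buffer with or without 2% Triton X-100 (37 °C, 10 min) to release encapsulated mRNA. Fluorescence at λex 480/λem 520 nm; EE % calculated from the two readings, averaged over two independent measurements.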

[3] = system: CCL2 mRNA level in HEK-293T cells
[4] = Size, polydispersity index and surface charge of mRNA-LNP (Malvern Zetasizer Nano ZS90); format: physicochemical
How it was run: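 Dynamic/electrophoretic light scattering of LNPs diluted in PBS to a final mRNA concentration of 1 μg/mL. Readouts were particle size, PDI and surface charge.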

[5] = system: CCL3 mRNA level in HEK-293T cells
female C57BL/6 mice = test: Protein expression efficiency of fLuc mRNA-LNPs after intramuscular injection (IVIS whole-body luminescence); format: in vivo; conditions: fLuc mRNA-LNP, intramuscular injection, luminescence at injection site, mice
How it was run: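 Female C57BL/6 mice (6-10 weeks, n≥4) got intramuscular fLuc mRNA-LNPs at 0.1-0.5 mg/kg mRNA. Injection-site luminescence was imaged under isoflurane at 1-72 h, 10 min after i.p. D-luciferin (200 μL, 15 mg/mL). Expression at 3 h was taken relative to MC3 or SM-102 LNPs.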

[6] = system: IL-1β mRNA level in HEK-293T cells
[7] = Apparent pKa of mRNA-LNP by TNS binding assay; format: physicochemical; conditions: apparent pKa of mRNA-LNP made with the ionizable lipid
Protocol: The apparent pKa of the mRNA-LNPs prepared according to Example 27 was determined by analysis using 6-(p-toluidino)-2-naphthalenesulfonic acid sodium salt (TNS; Sigma-Aldrich, USA).
However, as the pH decreases, the proportion of positively charged ionizable lipids increases, allowing electrostatic interactions with TNS. […] When the pH of the solution increases and the ionizable lipids become neutralized, TNS can no longer engage in electrostatic interactions. Consequently, TNS loses its lipophilic character, exits the hydrophobic domain, and its fluorescence is quenched. Based on this principle, the pKa of LNPs can be measured by plotting the change in TNS fluorescence intensity in response to variations in the surrounding pH as an S-shaped curve, and calculating the […] of the inflection point. […]
Specifically, a master buffer was prepared containing 10 mM sodium phosphate, 10 mM sodium borate, 10 mM sodium citrate, and 150 mM sodium chloride (NaCl). […] After gently mixing the contents of each well, the fluorescence intensity was measured using a multiplate reader (Cary Eclipse, Agilent Technologies, USA) at an excitation wavelength of λex 330 nm and an emission wavelength of λem 435 nm.

**Q.** Which “IL-6 Average” value [1] does the source give for CCCCCCCCCCCOC(=O)CCCCCN(CCO)CCCCCCCC(=O)OC(CCCCCCCC)CCCCCCCC [SM-102, reference compound] here?
**A.** The value was 1.82.

**Q.** And the “EE (%)” value [2]?
**A.** Its value is 94%.

**Q.** And the “CCL2 Average” value [3]?
**A.** The value was 0.83.

**Q.** What about the PDI ([4]; mRNA-LNP made with the ionizable lipid at its optimal formulation (Table 2)) of the same compound?
**A.** The PDI was 0.140.

**Q.** And the “size (nm) Number” value ([4]; mRNA-LNP made with the ionizable lipid at its optimal formulation (Table 2), diluted with PBS to 1 μg/mL mRNA)?
**A.** Its value is 101 nm.

**Q.** And the “Zeta (mV)” value ([4]; surface charge of mRNA-LNP made with the ionizable lipid at its optimal formulation (Table 2))?
**A.** Its value is −2.99 mV.

**Q.** What about the “CCL3 Average” value [5] of the same compound?
**A.** The value was 2.41.

**Q.** And the “Total flux 1 hour” value (female C57BL/6 mice; 1 hour after administration)?
**A.** The value was 1.48E+07.

**Q.** And the “Total flux 3 hours” value (female C57BL/6 mice; 3 hours after administration)?
**A.** The value was 1.12E+08.

**Q.** What about the “Total flux 6 hours” value (female C57BL/6 mice; 6 hours after administration) of the same compound?
**A.** Its value is 1.82E+08.

**Q.** What about the “Total flux 48 hours” value (female C57BL/6 mice; 48 hours after administration) of the same compound?
**A.** Its value is 7.43E+06.

**Q.** And the “Total flux 72 hours” value (female C57BL/6 mice; 72 hours after administration)?
**A.** Its value is 2.86E+06.

**Q.** And the Total flux (female C57BL/6 mice; after administration)?
**A.** Its Total flux is 2.27E+07.

**Q.** And the “IL-1β Average” value [6]?
**A.** Its value is 1.14.

**Q.** What about the PKa [7] of the same compound?
**A.** The PKa was 6.48.
